Assay results published in patent US20180280450A1, “METHOD OF PROMOTING IMMUNE HEALTH USING THE WATER-SOLUBLE COMPONENT FROM GENUS EUGLENA ORGANISM” (KEMIN INDUSTRIES, INC., priority 2017, published 2018).

Tests used:
T-cells = test: Immune cell activation by flow cytometry (CD69/CD25) on T-cells in PBMC cultures; type: cell-based, human; settings: 24-hour PBMC cultures
Description: (§1) Human peripheral blood mononuclear cell (PBMC) cultures were used for this testing. A set of cultures was left untreated as negative control cultures for immune activation. Triplicate sets of cultures were treated with serial dilutions of the test product. The inflammatory bacterial lipopolysaccharide LPS from E. coli was used as a positive control for activation. The cultures were incubated for 24 hours, after which the cells and the culture supernatants were harvested and used to monitor the reactions in each culture. […]
(§2) The cells were stained with a combination of monoclonal antibodies to monitor activation status, and analyzed by multi-parameter flow cytometry, using an acoustic dual-laser Attune® flow cytometer. […]
(§3) Immune cell activation was analyzed after the cell viability testing. […] The cells were stained with a combination of monoclonal antibodies to monitor activation, and analyzed by multi-parameter flow cytometry, using an acoustic dual laser Attune® flow cytometer. […]
(§4) The cellular staining for activation, performed using a fluorescently labelled monoclonal antibody to the CD69 and CD25 activation markers, allowed researchers to measure cellular activation by fluorescence intensity. […]

Solubility in water = type: physicochemical
non-T non-NK lymphocytes = test: Immune cell activation by flow cytometry (CD69/CD25) on non-T non-NK lymphocytes in PBMC cultures; type: cell-based, human; settings: 24-hour PBMC cultures
Description: as §1, §2, §3, §4

human immune cells = test: In vitro bioassay screening of Test Products in cell cultures of human immune cells (overall summary); type: cell-based; settings: sample preparation after 0.2 micron filtration
Description: Bioassay screening of nutraceutical ingredients and one blend were performed to evaluate their potency and mechanisms of action. The screening involved testing in cell cultures involving human immune cells. As part of this process, selected immune ingredients currently on the market were compared for similarities and differences of mechanisms of action, as well as efficacy (active dose comparison). Eight Test Products labeled Test Products A-H, as noted in the various tables and explained below were employed in this study.
The water-soluble Test Products were prepared by taking 0.25 grams of powder into 5 mL of physiological saline. The suspension was incubated under gentle agitation for one hour, after which any remaining solids were removed by centrifugation. Insoluble, particulate Test Products were prepared by taking 0.5 grams of powder into 3 mL of physiological saline. One (1) mL ceramic beads (200 uM zirconium) were added, and bead milling performed by 10 cycles of repeated 60-second pulsing (vortex high speed, 60 one (1) second pulses) with placement of samples in an ice-bath between cycles. Subsequently, seven (7) mL of physiological saline was then added to bring the samples to a 50 mg/mL final concentration. […]

[1] = test system: CD69/CD25 double positive lymphocytes; test: CD69/CD25 double positive lymphocytes by flow cytometry in PBMC cultures; type: cell-based, human; settings: 24-hour PBMC cultures, dose not specified
Description: as §1, §2, §3, §4

monocytes = test: Immune cell activation by flow cytometry (CD69) on monocytes in PBMC cultures; type: cell-based, human; settings: dose not specified
Description: as §1, §2, §3, §4

solubility in water (Solubility in water): completely insoluble
Substance: paramylon [Test Product D]
CD25 expression on T-cells (T-cells; at lower doses): varying degrees of suppressing CD25 expression
CD69 expression on T-cells (T-cells; figures show T-cells): only exerted minor effects
CD69 expression on non-T non-NK cells (non-T non-NK lymphocytes; dose not specified (FIG. 19)): only exerted minor, if any, effects
CD25 expression on non-T non-NK cells (non-T non-NK lymphocytes; FIG. 21 shows CD25): only exerted minor, if any, effects
activity in the in vitro screen (overall) (human immune cells): essentially no activity
activity in the in vitro screen (overall) (human immune cells; listed as Sample D): essentially inactive
number of CD69/CD25 double-positive lymphocytes [1]: only exerted minor, if any, effects
CD69 expression on monocytes (monocytes): only exerted minor, if any, effects
